Patent publication US7101681B1, “Nuclear hormone receptor drug screens” (Amgen, Inc., priority 1997, dated 2006)

Tests used:
[1] = target: T1, PPARγ (Homo sapiens, UniProt P37231); test: Fluorescent polarization assay, labeled peptide sensor binding to PPARγ; conditions: graded symbols O, I to IV, key not given
T1 sequence (P37231 238-503 limits assumed): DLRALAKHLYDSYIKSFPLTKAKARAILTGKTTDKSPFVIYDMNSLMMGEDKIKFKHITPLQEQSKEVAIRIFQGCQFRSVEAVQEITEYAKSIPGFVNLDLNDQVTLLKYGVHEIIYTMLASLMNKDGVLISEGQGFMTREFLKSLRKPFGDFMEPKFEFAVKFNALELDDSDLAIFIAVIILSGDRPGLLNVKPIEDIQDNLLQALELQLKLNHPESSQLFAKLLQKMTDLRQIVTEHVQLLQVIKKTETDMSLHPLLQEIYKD
Experimental: (§1) I. High-Throughput In Vitro Fluorescence Polarization Assay
(§2) • Sensor: Rhodamine-labeled L1X1X2L2L3 peptide (final conc.=1–5 nM) • Receptor: Glutathione-S-transferase/nuclear hormone receptor ligand binding domain fusion protein (final conc.=100–200 nM) • Buffer: 10 mM HEPES, 10 mM NaCl, 6 mM magnesium chloride, pH 7.6 Protocol: • 1. Add 90 microliters of peptide/NHR mixture to each well of a 96-well microtiter plate. • 2. Add 10 microliters of test compound per well. • 3. Shake 5 min and within 5 minutes determine amount of fluorescence polarization by using a Fluorolite FPM-2 Fluorescence Polarization Microtiter System (Dynatech Laboratories, Inc). II. Conformational Sensor—ELISA Format Assay Buffer and Solution Preparation: […]

[2] = system: LXR; test: Fluorescent polarization assay, labeled peptide sensor binding to LXR; conditions: for Sensors Activity: Fluorescent Polarization Assay LXR: graded symbols O, I to IV, key not given
Experimental: as §1, §2

[3] = system: RXR; test: Fluorescent polarization assay, labeled peptide sensor binding to RXR; conditions: for Sensors Activity: Fluorescent Polarization Assay RXR: graded symbols O, I to IV, key not given
Experimental: as §1, §2

Compound	Sensors Activity: Fluorescent Polarization Assay LXR [2]	Sensors Activity: Fluorescent Polarization Assay RXR [3]	also measured
TUK-1455: labeled peptide sensor R-LRYLLD (SEQ ID NO:5), SRC-1 749–754 (R label)	–	–	Sensors Activity: Fluorescent Polarization Assay PPARγ [1]: I+
TUK-1385: labeled peptide sensor R-KLVQLLTTT, SRC-1 632–640	II+	II+	–
TUK-1392: labeled peptide sensor F-G-LLRYLLDK, SRC-1 748–755	II+	–	–
TUK-1371: labeled peptide sensor R-ILHRLLQE, SRC-1 689–696	–	–	Sensors Activity: Fluorescent Polarization Assay PPARγ [1]: I+
TUK-1453: labeled peptide sensor R-LLRYLLD (SEQ ID NO:4), SRC-1 748–754 (R label)	–	I+	–
TUK-1557: labeled peptide sensor R-ILKKLLQE (SEQ ID NO:17), synthetic sequence peptide (label R)	III+	–	–
9-cis-retinoic acid [reference compound]	–	–	RXR receptor affinity for labeled peptide sensor ([3]; ligand at 1 μM, dose response, FIG. 3): increases
TUK-1391: labeled peptide sensor R-LLRYLLDK, SRC-1 748–755	–	–	Sensors Activity: Fluorescent Polarization Assay PPARγ [1]: II+
CC(C)C(=O)CC[C@@H](C)[C@H]1CC[C@H]2[C@@H]3CC=C4C[C@@H](O)CC[C@]4(C)[C@H]3CC[C@]12C [24-ketocholesterol, reference compound]	–	–	LXR receptor affinity for labeled peptide sensor ([2]; ligand at 2 μM, dose response, FIG. 2): increases
TUK-1382: labeled peptide sensor F-G-LLQQLLTE, SRC-1 1434–1441	II+	–	–
TUK-1390: labeled peptide sensor F-LLRYLLDK (SEQ ID NO:3), SRC-1 748–755 (fluorescent label)	–	II+	–

The next lines start with results.

Sensors Activity: Fluorescent Polarization Assay LXR [2]	Sensors Activity: Fluorescent Polarization Assay RXR [3]	Compound	also measured
III+	II+	TUK-1393: labeled peptide sensor R-G-LLRYLLDK, SRC-1 748–755	–
II+	–	TUK-1376: labeled peptide sensor F-G-VTLLQLLLG, RIP-140 496–506	–
–	II+	TUK-1373: labeled peptide sensor R-G-ILHRLLQE, SRC-1 689–696	–
–	I+	TUK-1381: labeled peptide sensor R-LLQQLLTE, SRC-1 1434–1441	Sensors Activity: Fluorescent Polarization Assay PPARγ [1]: I+
II+	–	TUK-1380: labeled peptide sensor F-LLQQLLTE (SEQ ID NO:12), SRC-1 1434–1441 (fluorescent label)	–
–	I+	TUK-1473: labeled peptide sensor R-QLLRYLLDKD (SEQ ID NO:9), SRC-1 747–756 (label R)	Sensors Activity: Fluorescent Polarization Assay PPARγ [1]: I+
